Measurements as given in ChEMBL document CHEMBL1135116, “Heterocyclic nucleoside analogues: design and synthesis of antiviral, modified nucleosides containing isoxazole heterocycles” (Bioorg Med Chem Lett, 2002).
Converted amounts (≈) assume the structure as drawn.

Key:
Coxsackievirus B3 [1] = test: Tested for its anti-polio activity against Coxsackie B virus type-3; format: functional, organism-based; settings: Enterovirus B
[2] = test system: Vesicular stomatitis virus; test: Tested for its anti-polio activity against Vesicular stomatitis virus; format: functional, organism-based
[3] = test system: Vesicular stomatitis virus; test: Selectivity index as the ratio of CC50/EC50 against Vesicular stomatitis virus; format: functional
Coxsackievirus B3 [4] = test: Selectivity index as the ratio of CC50/EC50 against Coxsackie B virus type-3; format: functional

NC(=O)c1ncn([C@@H]2O[C@H](CO)[C@@H](O)[C@H]2O)n1 [RIBAVIRIN]
EC50 (Coxsackievirus B3 [1]): 92.5 µg/mL (≈ 379 µM) | EC50 [2]: 15.6 µg/mL (≈ 64 µM) | Selectivity index [3]: 27.26 | Selectivity index (Coxsackievirus B3 [4]): 5.58

Cc1cn(Cc2cc([C@H](Cc3ccccc3)NC(=O)OC(C)(C)C)no2)c(=O)n(C(=O)c2ccccc2)c1=O
EC50 (Coxsackievirus B3 [1]): 10.6 µg/mL (≈ 20 µM) | EC50 [2]: 7.94 µg/mL (≈ 15 µM) | Selectivity index [3]: 3.29 | Selectivity index (Coxsackievirus B3 [4]): 2.46

CC(C)[C@H](NC(=O)OC(C)(C)C)c1cc(Cn2ccc(=O)n(C(=O)c3ccccc3)c2=O)on1
EC50 (Coxsackievirus B3 [1]): 98.1 µg/mL (≈ 209 µM) | EC50 [2]: 80 µg/mL (≈ 171 µM) | Selectivity index [3]: 1.25 | Selectivity index (Coxsackievirus B3 [4]): 1.02
